Patent US5326774A, “Pharmaceutical preparation of antihypertensive, antianginal, antiarrhythmic and antiglaucomic action” (priority 1992, dated 1994)
Where two headings read alike, the source gives them in different places.

Experiments:
β2-adrenoceptor [1] = molecular target: T1, β2-adrenoceptor (Rattus norvegicus, UniProt P10608); experiment: Inhibition of isadrin's depressor effect, i.v., anesthetized rats; type: in vivo
T1 construct: positive chronotropic and depressor effects in the anesthetized rats; from tissue; host or cells: whole living rat (blood pressure response to isadrin); endogenous receptor
T1 sequence (P10608 whole entry): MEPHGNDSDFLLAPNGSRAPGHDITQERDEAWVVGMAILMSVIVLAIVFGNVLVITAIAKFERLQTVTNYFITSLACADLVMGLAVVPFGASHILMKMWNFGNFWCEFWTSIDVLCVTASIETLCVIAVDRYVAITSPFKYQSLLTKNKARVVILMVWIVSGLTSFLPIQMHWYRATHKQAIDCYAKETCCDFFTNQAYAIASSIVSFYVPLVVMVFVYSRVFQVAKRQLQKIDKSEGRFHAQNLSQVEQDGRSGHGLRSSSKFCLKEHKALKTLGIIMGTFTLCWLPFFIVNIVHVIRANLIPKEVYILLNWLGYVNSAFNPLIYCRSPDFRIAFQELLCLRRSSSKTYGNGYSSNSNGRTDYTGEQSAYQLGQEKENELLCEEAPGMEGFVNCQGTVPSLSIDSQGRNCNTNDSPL

β-adrenoceptor [2] = experiment: Specificity of β-adrenoceptor blocking effect: positive inotropism
Source text: Thus, the compound of the invention relates to specific β-adrenoceptor blocking agents.

β2-adrenoceptor [3] = experiment: Isadrin's depressor effect, i.v., anesthetized cats; type: in vivo, cat
Source text: (§1) The influence of intravenous injection of the compound according to the invention as compared with the known drugs on […] positive chronotropic and depressor effects in the anesthetized cats was studied.

arterial pressure [4] = experiment: Arterial pressure in anesthetized rats, i.v.; type: in vivo, rat; details: for arterial pressure: control 159±9
Experimental: β-adrenoceptor blocking activity of the active principle of the pharmaceutical preparation of the invention was studied. […]. The test substances were injected to several groups of animals (6-10 individuals each) in the graded doses of 0.001, 0.0025, 0.01, 0.025, and 0.1 mg/kg.
From the dosage of […] it gave rise to the lowering of arterial pressure (from 159±9 in the control to 141±11, 127±10 and 123 ±11 mm Hg in the dosages of 0.01, 0.025 and 0.1 mg/kg). From the dosage of 0.0025 mg/kg the compound of the invention gave rise to the dose-related suppression of the isadrin-initiated depressor effect (by 12,63, 82 and 90% in doses of 0.0025, 0.01, 0.025 and 0.1 mg/kg) and, starting from the dosage of […], a positive chronotropic (by 25, 46 and 78% in doses of 0.01, 0.025 said 0.1 mg/kg, respectively) effect.

arterial pressure [5] = experiment: Antihypertensive effect in rats with spontaneous hypertension; type: in vivo, rat
arterial pressure [6] = experiment: Hypotensive activity in anesthetized cats, i.v.; type: in vivo, cat; details: for arterial pressure: control 163±8
[7] = test system: electrically induced ventricular fibrillation; experiment: Threshold of electrically induced ventricular fibrillation in anesthetized cats; type: in vivo, cat
in vivo = details: mouse
Source text: (§2) LD50 values were estimated by using the Litchfield-Wilckoxon method.

myocardium necrosis = experiment: Myocardium necrosis in rats with labile coronary occlusion; type: in vivo, rat; details: for Mass and size myocardium (% to the total area of aortic ventricle): control 31.2 ± 1.96; for Area of myocardium necrosis (% to the total area of aortic ventricle): control 33.5 ± 2.5
β1-adrenoceptor [8] = molecular target: T2, β1-adrenoceptor (Rattus norvegicus, UniProt P18090); experiment: Oral administration, isadrin-initiated positive chronotropism in rats; type: in vivo
T2 construct: positive chronotropic and depressor effects in the anesthetized rats; from tissue; host or cells: whole living rat (heart rate response to isadrin); endogenous receptor
T2 sequence (P18090 whole entry): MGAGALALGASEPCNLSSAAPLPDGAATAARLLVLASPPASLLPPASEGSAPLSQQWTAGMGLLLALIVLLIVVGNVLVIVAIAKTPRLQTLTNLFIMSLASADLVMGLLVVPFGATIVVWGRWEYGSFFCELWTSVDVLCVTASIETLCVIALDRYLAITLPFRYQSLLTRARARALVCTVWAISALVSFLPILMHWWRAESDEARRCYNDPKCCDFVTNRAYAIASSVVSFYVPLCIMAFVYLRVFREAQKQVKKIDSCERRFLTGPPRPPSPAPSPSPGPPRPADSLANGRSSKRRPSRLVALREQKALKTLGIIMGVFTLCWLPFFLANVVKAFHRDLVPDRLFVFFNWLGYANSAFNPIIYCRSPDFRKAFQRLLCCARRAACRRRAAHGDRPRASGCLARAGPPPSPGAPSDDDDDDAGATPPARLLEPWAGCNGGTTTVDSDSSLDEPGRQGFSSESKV
Experimental: The effects of oral administration of the compound according to the invention as compared with the known drugs on the isadrin-initiated positive chronotropism in rats were tested.

[9] = test system: strophantin-induced arrhythmia; type: in vivo, guinea pig
experimental animals = experiment: Chronic toxicity, intragastric; type: in vivo
arterial pressure [10] = experiment: Arterial pressure and heart rate in conscious normotensive rats, oral; type: in vivo, rat; details: 10 and 50 mg/kg oral, 1 hour
β-adrenoceptor [11] = experiment: β-adrenoceptor blocking effect duration; details: in vivo
arterial pressure [12] = experiment: Antihypertensive effect in rats with renovascular hypertension; type: in vivo, rat
Experimental: . In rats suffering from renovascular hypertension the compound of the invention in the dosage of 10 mg/kg (injected intramuscularly) lowered with confidence the arterial pressure (from 137±3 to 117±5 mm of Hg column) 30 minutes after being administered. The 2-week course of the administration of the compound according to the invention (10 mg/kg 1 time a day) caused the antihypertensive effect to be enhanced. By the end of the second week the arterial pressure was 110±8.6 mm Hg. […]

β1-adrenoceptor [13] = molecular target: T2, β1-adrenoceptor; experiment: Inhibition of isadrin's positive chronotropic effect, i.v., anesthetized rats; type: in vivo
β1-adrenoceptor [14] = experiment: Isadrin's positive chronotropic effect, i.v., anesthetized cats; type: in vivo, cat
Source text: as §1

Source text for albino mice: as §2

Cc1noc(COc2ccccc2OCC(O)CNC(C)(C)C)n1.Cl (stereo not drawn) [Compound of the invention, 3-methyl-5-[2-(3-tert.butylamino-2-hydroxypropoxy)phenoxymethyl]-1,2,4-oxadiazole hydrochloride]
suppression of the isadrin-initiated depressor effect (β2-adrenoceptor [1]; 0.025 mg/kg i.v.): 82%
suppression of the isadrin-initiated depressor effect (β2-adrenoceptor [1]; 0.1 mg/kg i.v.): 90%
β2-adrenoceptor blocking activity, times as high as labetalol (β2-adrenoceptor [1]; comparison of ED50, rats i.v.): 412 times
β2-adrenoceptor blocking activity, times as high as oxprenolol (β2-adrenoceptor [1]; comparison of ED50, rats i.v.): 4 times
β2-adrenoceptor blocking activity, times as high as pindolol (β2-adrenoceptor [1]; comparison of ED50, rats i.v.): 2 times
β2-adrenoceptor blocking activity, times as high as propranolol (β2-adrenoceptor [1]; comparison of ED50, rats i.v.): 11 times
dosage from which isadrin depressor effect suppressed (β2-adrenoceptor [1]; i.v.): 0.0025 mg/kg
ED50 (β2-adrenoceptor [1]; rat, iv, read-out: Dosage inhibiting isadrin's depressor effect by 50%, ED50): 0.008 ± 0.0007 mg/kg
effect on positive inotropism of isadrin (β-adrenoceptor [2]): completely arrested
effect on positive inotropism of strophanthin, calcium chloride and theophylline (β-adrenoceptor [2]): did not inhibit but even somewhat enhanced
β2-adrenoceptor blocking activity, times as high as labetalol (β2-adrenoceptor [3]): 114 times
β2-adrenoceptor blocking activity, times as high as oxprenolol (β2-adrenoceptor [3]): 43 times
β2-adrenoceptor blocking activity, times as high as propranolol (β2-adrenoceptor [3]): 2 times
arterial pressure (arterial pressure [4]; 0.01 mg/kg i.v.): 141±11 mm Hg
arterial pressure (arterial pressure [4]; 0.025 mg/kg i.v.): 127±10 mm Hg
arterial pressure (arterial pressure [4]; 0.1 mg/kg i.v.): 123 ±11 mm Hg
minimal effective dose (arterial pressure [4]; Rattus norvegicus, iv, read-out: dosage from which arterial pressure lowered): 0.1 mg/kg
hypotensive and antihypertensive properties (arterial pressure [5]): shows hypotensive and antihypertensive properties
arterial pressure (arterial pressure [6]; 0.02 mg/kg): 147±12 mm Hg
arterial pressure (arterial pressure [6]; 0.1 mg/kg): 132±5 mm Hg
arterial pressure (arterial pressure [6]; 0.3 mg/kg): 96±7 mm Hg
arterial pressure (arterial pressure [6]; 1.0 mg/kg): 90±7 mm Hg
arterial pressure (arterial pressure [6]; 5.0 mg/kg): 67±7 mm Hg
ED20 (arterial pressure [6]; Felis catus, iv, anesthetized cats, read-out: Dose resulting in lowering of arterial pressure by 20%, ED20): 0.11 ± 0.01 mg/kg
minimal effective dose (arterial pressure [6]; Felis catus, iv, cats, read-out: dosage from which arterial pressure lowered): 0.02 mg/kg
hypotensive effect compared with labetalol (arterial pressure [6]; anesthetized normotensive cats, i.v.): stronger hypotensive effect as compared with labetalol
hypotensive activity, times as high as labetalol (arterial pressure [6]; comparison of ED20): 9 times
hypotensive activity and duration compared with labetalol (arterial pressure [6]; in vivo): superior to labetalol by hypotensive activity and duration of such effect
duration of hypotensive effect (arterial pressure [6]; large dosages): 3 to 4 h
duration of hypotensive effect (arterial pressure [6]; small dosages): 0.083 to 0.5 h
threshold of electrically induced ventricular fibrillation ([7]; 1 mg/kg): did not change
threshold of electrically induced ventricular fibrillation ([7]; 5 mg/kg): increased considerably this threshold
value of increasing threshold compared with propranolol and oxprenolol ([7]; 5 mg/kg): higher
antiarrhythmic activity and efficacy (ventricular fibrillation threshold, strophanthin arrhythmia) ([7]; compared with propranolol, oxprenolol, pindolol and labetalol): superior to propranolol, oxprenolol, pindolol and labetalol
LD50 at 72 h (in vivo; iv): 72.5 mg/kg
LD50 at 72 h (in vivo; po): 600 mg/kg
Mass and size myocardium (% to the total area of aortic ventricle) (myocardium necrosis; 1 mg/kg): 31.5%
Area of myocardium necrosis (% to the total area of aortic ventricle) (myocardium necrosis; 1 mg/kg): 30%
aortic ventricle necrosis in mass and size (myocardium necrosis; 5 mg/kg i.v.): decreasing in the aortic ventricle necrosis in mass and size
Mass and size myocardium (% to the total area of aortic ventricle) (myocardium necrosis; 5 mg/kg, P < 0.05): 23.6 ± 3.2%
Area of myocardium necrosis (% to the total area of aortic ventricle) (myocardium necrosis; 5 mg/kg, P < 0.05): 24.3 ± 3.4%
β1-adrenoceptor blocking activity compared with pindolol (β1-adrenoceptor [8]): inferior to pindolol
β1-adrenoceptor blocking activity, superior to labetalol by (β1-adrenoceptor [8]): 35 times
β1-adrenoceptor blocking activity, superior to propranolol by (β1-adrenoceptor [8]): 14.8 times
Arrhythmogenic dose of strophantin as compared with control: extrasystoles ([9]; 0.1 mg/kg i.v.): 118%
Dose of strophantin as compared with control: ventricular fibrillation ([9]; 0.1 mg/kg i.v.): 115.6%
Lethal dose of strophantin as compared with control: animal death ([9]; 0.1 mg/kg i.v.): 118.7%
Arrhythmogenic dose of strophantin as compared with control: extrasystoles ([9]; 0.3 mg/kg i.v.): 125.9%
Dose of strophantin as compared with control: ventricular fibrillation ([9]; 0.3 mg/kg i.v.): 113.1%
Lethal dose of strophantin as compared with control: animal death ([9]; 0.3 mg/kg i.v.): 123.5%
Arrhythmogenic dose of strophantin as compared with control: extrasystoles ([9]; 1.0 mg/kg i.v.): 148.2%
Dose of strophantin as compared with control: ventricular fibrillation ([9]; 1.0 mg/kg i.v.): 147.2%
Lethal dose of strophantin as compared with control: animal death ([9]; 1.0 mg/kg i.v.): 142.6%
Arrhythmogenic dose of strophantin as compared with control: extrasystoles ([9]; 3.0 mg/kg i.v.): 157.0%
Dose of strophantin as compared with control: ventricular fibrillation ([9]; 3.0 mg/kg i.v.): 170.2%
Lethal dose of strophantin as compared with control: animal death ([9]; 3.0 mg/kg i.v.): 150.7%
antiarrhythmic activity and efficacy ([9]; 0.1-3.0 mg/kg i.v.): superior to propranolol, oxprenolol and labetalol
biochemical blood values (experimental animals; 5 and 30 mg/kg, 6 months): no effect on biochemical blood values
clinical blood values (experimental animals; 5 and 30 mg/kg, 6 months): did not change the clinical blood values
influence on behavior, appearance, body functions (experimental animals; 5 and 30 mg/kg, 6 months): not exert an essential influence
locally irritant effect (experimental animals; 5 and 30 mg/kg, 6 months): did not exert any locally irritant effect
pathologic alterations in structure of internals (experimental animals; 5 and 30 mg/kg, 6 months): did not lead to pathologic alterations
chronic toxicity tolerance (experimental animals; intragastric): excellent tolerance
lower toxicity compared with propranolol, oxprenolol and pindolol (albino mice; i.v.): 2-4 times
lower toxicity than propranolol and oxprenolol (albino mice; oral): 2-3 times
arterial pressure (arterial pressure [10]): arterial pressure lowering
heart rate (arterial pressure [10]): a decrease in heart rate
β-adrenoceptor blocking effect duration (β-adrenoceptor [11]): somewhat superior to propranolol and oxprenolol
arterial pressure (arterial pressure [12]; 10 mg/kg 1 time a day, end of second week): 110±8.6 mm Hg
arterial pressure (arterial pressure [12]; 10 mg/kg i.m., 30 minutes, from 137±3): 117±5 mm of Hg column
efficacy on long-time use (arterial pressure [12]; long time use): its efficacy is not becoming low (no drug addiction)
suppression of isadrin positive chronotropic effect (β1-adrenoceptor [13]; 0.01 mg/kg i.v.): 25%
suppression of isadrin positive chronotropic effect (β1-adrenoceptor [13]; 0.025 mg/kg i.v.): 46%
suppression of isadrin positive chronotropic effect (β1-adrenoceptor [13]; 0.1 mg/kg i.v.): 78%
β1-adrenoceptor blocking activity compared with pindolol (β1-adrenoceptor [13]; comparison of ED50, rats i.v.): close to pindolol
β1-adrenoceptor blocking activity, factor over labetalol (β1-adrenoceptor [13]; comparison of ED50, rats i.v.): 23
β1-adrenoceptor blocking activity, factor over oxprenolol (β1-adrenoceptor [13]; comparison of ED50, rats i.v.): 9
β1-adrenoceptor blocking activity, factor over propranolol (β1-adrenoceptor [13]; comparison of ED50, rats i.v.): 12
dosage from which isadrin positive chronotropic effect suppressed (β1-adrenoceptor [13]; i.v.): 0.1 mg/kg
ED50 (β1-adrenoceptor [13]; rat, iv, read-out: Dosage inhibiting isadrin's positive chronotropism by 50% (ED50)): 0.03 ± 0.001 mg/kg
β1-adrenoceptor blocking activity compared with pindolol (β1-adrenoceptor [14]): close to pindolol
β1-adrenoceptor blocking activity, factor over labetalol (β1-adrenoceptor [14]): 550
β1-adrenoceptor blocking activity, factor over oxprenolol (β1-adrenoceptor [14]): 35
β1-adrenoceptor blocking activity, factor over propranolol (β1-adrenoceptor [14]): 3.5
